{
  "source": "patent US20040106590A1",
  "about": "“Methods and reagents for treating infections of clostridium difficile and diseases associated therewith” (priority 2002, published 2004)",
  "assay_type_in_all_cases": "cell-based",
  "key": {"[1]": {"tested_on": "C. difficile", "assay": "MIC by agar dilution (NCCLS M11-A5) on C. difficile strains", "conditions": "for MIC: Clostridioides difficile; for susceptibility of strains: Strains 80 and 29-5-30"}, "[2]": {"tested_on": "B. frag 25285", "assay": "MIC by agar dilution, QC organism B. frag 25285", "conditions": "QC B. frag 25285, 48 h anaerobic"}, "[3]": {"tested_on": "B. theta 29741", "assay": "MIC by agar dilution, QC organism B. theta 29741", "conditions": "QC B. theta 29741, 48 h anaerobic"}, "[4]": {"conditions": "ATCC43255, Sample 31, QC C. diff ATCC 43255"}, "[5]": {"conditions": "Sample 23, C. difficile 11-5-03"}, "[6]": {"conditions": "Sample 24, C. difficile 13-5-03"}, "[7]": {"conditions": "Sample 25, C. difficile 14-5-03"}, "[8]": {"conditions": "Sample 26, C. difficile 16-5-03"}, "[9]": {"conditions": "Sample 27, C. difficile 17-5-03"}, "[10]": {"conditions": "Sample 28, C. difficile 19-5-03"}, "[11]": {"conditions": "Sample 29, C. difficile 22-5-03"}, "[12]": {"conditions": "Sample 30, C. difficile 29-5-03"}},
  "data": [
    {"smiles": "Cc1ncc([N+](=O)[O-])n1CCO", "note": "[Metronidazole, metronidazole, reference compound]", "values": [
      {"measurement": "MIC", "setting": "[1]; [4]", "result": 0.5, "unit": "µg/mL"},
      {"measurement": "MIC", "setting": "[1]; Sample 1, C. difficile 18", "result": 0.5, "unit": "µg/mL"},
      {"measurement": "MIC", "setting": "[1]; Sample 2, C. difficile 22", "result": 0.5, "unit": "µg/mL"},
      {"measurement": "MIC", "setting": "[1]; Sample 3, C. difficile 28", "result": 0.5, "unit": "µg/mL"},
      {"measurement": "MIC", "setting": "[1]; Sample 4, C. difficile 40", "result": 0.5, "unit": "µg/mL"},
      {"measurement": "MIC", "setting": "[1]; Sample 5, C. difficile 44", "result": 0.5, "unit": "µg/mL"},
      {"measurement": "MIC", "setting": "[1]; Sample 6, C. difficile 50", "result": 0.5, "unit": "µg/mL"},
      {"measurement": "MIC", "setting": "[1]; Sample 7, C. difficile 60", "result": 0.5, "unit": "µg/mL"},
      {"measurement": "MIC", "setting": "[1]; Sample 8, C. difficile 70", "result": 0.25, "unit": "µg/mL"},
      {"measurement": "MIC", "setting": "[1]; Sample 9, C. difficile 80", "result": 0.5, "unit": "µg/mL"},
      {"measurement": "MIC", "setting": "[1]; Sample 10, C. difficile 101", "result": 0.5, "unit": "µg/mL"},
      {"measurement": "MIC", "setting": "[1]; Sample 11, C. difficile 107", "result": 0.5, "unit": "µg/mL"},
      {"measurement": "MIC", "setting": "[1]; Sample 12, C. difficile 113", "result": 0.5, "unit": "µg/mL"},
      {"measurement": "MIC", "setting": "[1]; Sample 13, C. difficile 116", "result": 0.25, "unit": "µg/mL"},
      {"measurement": "MIC", "setting": "[1]; Sample 14, C. difficile 143", "result": 0.5, "unit": "µg/mL"},
      {"measurement": "MIC", "setting": "[1]; Sample 15, C. difficile 146", "result": 0.5, "unit": "µg/mL"},
      {"measurement": "MIC", "setting": "[1]; Sample 16, C. difficile 154", "result": 0.25, "unit": "µg/mL"},
      {"measurement": "MIC", "setting": "[1]; Sample 17, C. difficile 166", "result": 0.5, "unit": "µg/mL"},
      {"measurement": "MIC", "setting": "[1]; Sample 18, C. difficile 199", "result": 0.25, "unit": "µg/mL"},
      {"measurement": "MIC", "setting": "[1]; Sample 19, C. difficile 65C", "result": 0.5, "unit": "µg/mL"},
      {"measurement": "MIC", "setting": "[1]; Sample 20, C. difficile 5-5-03", "result": 0.5, "unit": "µg/mL"},
      {"measurement": "MIC", "setting": "[1]; Sample 21, C. difficile 6-5-03", "result": 0.5, "unit": "µg/mL"},
      {"measurement": "MIC", "setting": "[1]; Sample 22, C. difficile 7-5-03", "result": 0.25, "unit": "µg/mL"},
      {"measurement": "MIC", "setting": "[1]; [5]", "result": 0.5, "unit": "µg/mL"},
      {"measurement": "MIC", "setting": "[1]; [6]", "result": 0.5, "unit": "µg/mL"},
      {"measurement": "MIC", "setting": "[1]; [7]", "result": 0.5, "unit": "µg/mL"},
      {"measurement": "MIC", "setting": "[1]; [8]", "result": 0.5, "unit": "µg/mL"},
      {"measurement": "MIC", "setting": "[1]; [9]", "result": 0.25, "unit": "µg/mL"},
      {"measurement": "MIC", "setting": "[1]; [10]", "result": 0.5, "unit": "µg/mL"},
      {"measurement": "MIC", "setting": "[1]; [11]", "result": 0.25, "unit": "µg/mL"},
      {"measurement": "MIC", "setting": "[1]; [12]", "result": 0.5, "unit": "µg/mL"},
      {"measurement": "susceptibility of strains", "setting": "[1]", "result": "less susceptible"},
      {"measurement": "MIC", "setting": "[2]", "result": 1, "unit": "µg/mL"},
      {"measurement": "MIC", "setting": "[3]", "result": 2, "unit": "µg/mL"}
    ]},
    {"smiles": "CO[C@H]1/C=C/O[C@@]2(C)Oc3c(C)c(O)c4c(=O)c(c5oc6cc(N7CCN(CC(C)C)CC7)cc(O)c6nc-5c4c3C2=O)NC(=O)/C(C)=C\\C=C\\[C@H](C)[C@H](O)[C@@H](C)[C@@H](O)[C@@H](C)[C@H](OC(C)=O)[C@@H]1C", "note": "[ABI1648, 3′-hydroxy-5′-(4-isobutyl-1-piperazinyl) benzoxazinorifamycin]", "values": [
      {"measurement": "MIC", "setting": "[1]; [4]", "result": 0.002, "unit": "µg/mL"},
      {"measurement": "MIC", "setting": "[1]; Sample 1, C. difficile 18", "result": 0.001, "unit": "µg/mL"},
      {"measurement": "MIC", "setting": "[1]; Sample 2, C. difficile 22", "result": 0.001, "unit": "µg/mL"},
      {"measurement": "MIC", "setting": "[1]; Sample 3, C. difficile 28", "result": 0.002, "unit": "µg/mL"},
      {"measurement": "MIC", "setting": "[1]; Sample 4, C. difficile 40", "result": 0.001, "unit": "µg/mL"},
      {"measurement": "MIC", "setting": "[1]; Sample 5, C. difficile 44", "result": 0.001, "unit": "µg/mL"},
      {"measurement": "MIC", "setting": "[1]; Sample 6, C. difficile 50", "result": 0.002, "unit": "µg/mL"},
      {"measurement": "MIC", "setting": "[1]; Sample 7, C. difficile 60", "result": 0.002, "unit": "µg/mL"},
      {"measurement": "MIC", "setting": "[1]; Sample 8, C. difficile 70", "result": 0.001, "unit": "µg/mL"},
      {"measurement": "MIC", "setting": "[1]; Sample 9, C. difficile 80", "result": "> 20.5", "unit": "µg/mL"},
      {"measurement": "MIC", "setting": "[1]; Sample 10, C. difficile 101", "result": 0.004, "unit": "µg/mL"},
      {"measurement": "MIC", "setting": "[1]; Sample 11, C. difficile 107", "result": 0.001, "unit": "µg/mL"},
      {"measurement": "MIC", "setting": "[1]; Sample 12, C. difficile 113", "result": 0.004, "unit": "µg/mL"},
      {"measurement": "MIC", "setting": "[1]; Sample 13, C. difficile 116", "result": 0.002, "unit": "µg/mL"},
      {"measurement": "MIC", "setting": "[1]; Sample 14, C. difficile 143", "result": "≤ 0.0005", "unit": "µg/mL"},
      {"measurement": "MIC", "setting": "[1]; Sample 15, C. difficile 146", "result": 0.001, "unit": "µg/mL"},
      {"measurement": "MIC", "setting": "[1]; Sample 16, C. difficile 154", "result": "≤ 0.0005", "unit": "µg/mL"},
      {"measurement": "MIC", "setting": "[1]; Sample 17, C. difficile 166", "result": 0.001, "unit": "µg/mL"},
      {"measurement": "MIC", "setting": "[1]; Sample 18, C. difficile 199", "result": "≤ 0.0005", "unit": "µg/mL"},
      {"measurement": "MIC", "setting": "[1]; Sample 19, C. difficile 65C", "result": 0.002, "unit": "µg/mL"},
      {"measurement": "MIC", "setting": "[1]; Sample 20, C. difficile 5-5-03", "result": 0.002, "unit": "µg/mL"},
      {"measurement": "MIC", "setting": "[1]; Sample 21, C. difficile 6-5-03", "result": 0.002, "unit": "µg/mL"},
      {"measurement": "MIC", "setting": "[1]; Sample 22, C. difficile 7-5-03", "result": 0.002, "unit": "µg/mL"},
      {"measurement": "MIC", "setting": "[1]; [5]", "result": 0.001, "unit": "µg/mL"},
      {"measurement": "MIC", "setting": "[1]; [6]", "result": "≤ 0.0005", "unit": "µg/mL"},
      {"measurement": "MIC", "setting": "[1]; [7]", "result": 0.001, "unit": "µg/mL"},
      {"measurement": "MIC", "setting": "[1]; [8]", "result": 0.008, "unit": "µg/mL"},
      {"measurement": "MIC", "setting": "[1]; [9]", "result": 0.002, "unit": "µg/mL"},
      {"measurement": "MIC", "setting": "[1]; [10]", "result": 0.002, "unit": "µg/mL"},
      {"measurement": "MIC", "setting": "[1]; [11]", "result": 0.001, "unit": "µg/mL"},
      {"measurement": "MIC", "setting": "[1]; [12]", "result": "> 0.5", "unit": "µg/mL"},
      {"measurement": "susceptibility of strains", "setting": "[1]", "result": "less susceptible"},
      {"measurement": "effectiveness compared with metronidazole", "setting": "[1]; against almost all 31 strains of C. difficile", "result": "much more effective than metronidazole"},
      {"measurement": "MIC", "setting": "[2]", "result": 0.03, "unit": "µg/mL"},
      {"measurement": "MIC", "setting": "[3]", "result": 0.03, "unit": "µg/mL"}
    ]}
  ]
}
